Values joined by “and” are separate entries in the source; they are usually repeats but may differ in a detail not shown here. Identical values can stand only once. Like-named read-outs stand apart in the source and are kept apart here.
Key:
Assay type in all cases: cell-based, human
CAKI-1 cells = assay: MTT cytotoxicity, kidney cancer cells CAKI-1
Method in brief: (§1)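 Cells seeded at 5000 per well were exposed next day to compounds at 0.1, 1, 5 and 10 μM for 48 and/or 72 h. MTT (5 mg/ml) was added for 4 h, formazan dissolved in DMSO, and absorbance read at 570 nm against 630 nm. IC50 came from dose-response curves of % viability versus DMSO controls.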

HUVEC cells = assay: MTT cytotoxicity, healthy cells HUVEC; conditions: for Selectivite Index, HUVEC (Table 2): HUVEC vs colon or pancreas cancer cells; for Selectivite Index, HUVEC (Table 2) / Selectivite Index (SI), HUVEC (Table 1): cancer line not given; for IC50: MTT; for Selectivite Index (SI), HUVEC (Table 1): HUVEC vs breast or kidney cancer cells
Method in brief: as §1

MIAPaCa-2 cells [1] = assay: MTT cytotoxicity, pancreas cancer cells MIAPaCa-2; conditions: for selectivity index: MCF-10F/Beas2b vs MIAPaCa-2
Method in brief: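 Cells were seeded at 5000 per well and treated next day with compound at 0.1, 1, 5 and 10 μM (final) for 48 and/or 72 h, with matched DMSO controls. MTT was added for 4 h and formazan was dissolved in DMSO and read at 570/630 nm. % viability against control gave IC50 from dose-response curves.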

A549 cells = assay: MTT cytotoxicity, lung cancer cells A549
Method in brief: as §1

MIAPaCa-2 cells [2] = assay: Apoptosis/necrosis detection, Annexin V/PI flow cytometry, MiaPaca-2; conditions: for necrosis compared to control: MiaPaca-2; for apoptosis (early and late) compared to control: MiaPaca-2, IC50 values
Experimental: (§2) After incubation with 2-indolinone compounds (IC50 μM concentration; 48 and/or 72 hours), cells are washed twice with PBS and the cell pellet is suspended in Annexin V binding buffer. After this incubation, cells are incubated with FITC-conjugated Annexin V and propidium iodine staining solution for 15 minutes in the dark and at room temperature. Then, cells are analyzed by flow cytometry (Beckman coulter, Navios) (Wlodkowic, D., Skommer, J, Darzynkiewicz, Z. 2009. Flow cytometry-based apoptosis detection, Methods Mol Biol., 559, 1-14).

MCF-7 cells = assay: MTT cytotoxicity, breast cancer cells MCF-7; conditions: MTT
Method in brief: as §1

[3] = tested on: pancreas and kidney cancer cells; assay: Apoptosis detection, Annexin V/PI flow cytometry, pancreas and kidney cancer cells
Experimental: as §2
Whether the 2-indolinone derivatives (5) with the highest selectivity index and general TKI activity stimulated apoptosis and necrosis is determined by Annexin V and propidium iodine staining in pancreas and kidney cancer cells. Annexin V/PI flow cytometry apoptosis values of the tested compounds Y1, Y2, Y3, Y4, Y8 and Y14 are found to be 40% and above in correlation with MTT results. The apoptosis rates of the control groups and the substances are analyzed by t test in GraphPad version 9.0.

MDA-MB-231 cells = assay: MTT cytotoxicity, breast cancer cells MDA-MB-231; conditions: MTT, no * mark (incubation time not given)
Method in brief: as §1

[4] = no * mark (incubation time not specified)
[5] = MTT, no * mark (incubation time not specified)
[6] = read-out: IC50, MDA-MB-231 (breast)

O=C1/C(=C\c2c[nH]c3ccccc23)c2cc(OC(F)(F)F)ccc2N1Cc1ccccc1 [Y4]
IC50 (CAKI-1 cells; [4]): 3.79 µM | Selectivite Index, HUVEC (Table 2) (HUVEC cells): 4.28 and 4.60 | IC50 (HUVEC cells; [4]): 2.44 µM | selectivity index (MIAPaCa-2 cells [1]): > 19 | IC50 (MIAPaCa-2 cells [1]; [5]): 0.53 µM | IC50 (A549 cells; [4]): > 10 µM | necrosis compared to control (MIAPaCa-2 cells [2]): did not cause necrosis | apoptosis (early and late) compared to control (MIAPaCa-2 cells [2]): increase in apoptosis at IC50 values was statistically significant | IC50 (MCF-7 cells; [4]): > 10 µM | Annexin V/PI flow cytometry apoptosis values [3]: ≥ 40% | IC50 (MDA-MB-231 cells; [6]): > 10 µM

O=C1/C(=C\c2c[nH]c3ccccc23)c2ccccc2N1Cc1ccccc1 [Y1]
IC50 (CAKI-1 cells; [4]): 3.38 µM | Selectivite Index, HUVEC (Table 2) (HUVEC cells): 6.60 | IC50 (HUVEC cells; [4]): 2.84 µM | selectivity index (MIAPaCa-2 cells [1]): > 23 | IC50 (MIAPaCa-2 cells [1]; [5]): 0.43 µM | IC50 (A549 cells; [4]): 9.72 µM | necrosis compared to control (MIAPaCa-2 cells [2]): did not cause necrosis | apoptosis (early and late) compared to control (MIAPaCa-2 cells [2]): increase in apoptosis at IC50 values was statistically significant | IC50 (MCF-7 cells; [4]): 6.34 µM | Annexin V/PI flow cytometry apoptosis values [3]: ≥ 40% | IC50 (MDA-MB-231 cells; [6]): 9.82 µM

Cc1ccc2c(c1)/C(=C/c1c[nH]c3ccccc13)C(=O)N2Cc1cccc(F)c1 [Y8]
IC50 (CAKI-1 cells; [4]): 3.28 µM | Selectivite Index (SI), HUVEC (Table 1) (HUVEC cells): 2.36 | Selectivite Index, HUVEC (Table 2) (HUVEC cells): 4.07 | IC50 (HUVEC cells; [4]): 2.2 µM | selectivity index (MIAPaCa-2 cells [1]): > 19 | IC50 (MIAPaCa-2 cells [1]; [5]): 0.54 µM | IC50 (A549 cells; [4]): 8.76 µM | necrosis compared to control (MIAPaCa-2 cells [2]): did not cause necrosis | apoptosis (early and late) compared to control (MIAPaCa-2 cells [2]): increase in apoptosis at IC50 values was statistically significant | IC50 (MCF-7 cells; [4]): 5.79 µM | Annexin V/PI flow cytometry apoptosis values [3]: ≥ 40% | IC50 (MDA-MB-231 cells; [6]): 7.36 µM

Cc1ccc2c(c1)/C(=C/c1c[nH]c3ccccc13)C(=O)N2Cc1ccccc1 [Y3]
IC50 (CAKI-1 cells; Homo sapiens, CAKI-1, no * mark (incubation time not given)): 4.01 µM | Selectivite Index (SI), HUVEC (Table 1) (HUVEC cells): 1.89 | Selectivite Index, HUVEC (Table 2) (HUVEC cells): 12.69 | IC50 (HUVEC cells; Homo sapiens, HUVEC, no * mark (incubation time not given)): 1.65 µM | IC50 (MIAPaCa-2 cells [1]; Homo sapiens, MIA PaCa-2, MTT, no * mark (incubation time not given)): 0.13 µM | selectivity index (MIAPaCa-2 cells [1]): > 77 | IC50 (A549 cells; Homo sapiens, A549, no * mark (incubation time not given)): 3.97 µM | necrosis compared to control (MIAPaCa-2 cells [2]): did not cause necrosis | apoptosis (early and late) compared to control (MIAPaCa-2 cells [2]): increase in apoptosis at IC50 values was statistically significant | IC50 (MCF-7 cells; Homo sapiens, MCF7, no * mark (incubation time not given)): 4.75 µM | Annexin V/PI flow cytometry apoptosis values [3]: ≥ 40% | IC50 (MDA-MB-231 cells; Homo sapiens, MDA-MB-231, read-out: IC50, MDA-MB-231 (breast)): 3.57 µM

Reference: US20260335282A1, “NOVEL 3-ARYLIDENE-2-INDOLINONE DERIVATIVES FOR THERAPEUTIC USE” (ISTANBUL UNIVERSITESI REKTORLUGU, priority 2022, published 2026)
